Measured values taken from patent US20220177508A1, “C10-Cyclic Substituted 13-Membered Macrolides and Uses Thereof” (Zikani Therapeutics, Inc., priority 2018, published 2022).
In brackets after ≈: the same amount, converted by molar mass.

Tests used:
Format in all cases: cell-based
[1] = test system: S. aureus MP-12; assay: Broth dilution MIC determination (CLSI), S. aureus MP-12; conditions: Staphylococcus aureus, MP12; strain MP-12, broth dilution
[2] = test system: E. coli MP-4; assay: Broth dilution MIC determination (CLSI), E. coli MP-4; conditions: Escherichia coli, MP4; strain MP-4, broth dilution; read-out: MIC E. coli MP-4
[3] = test system: K. pneumoniae MP-546; assay: Broth dilution MIC determination (CLSI), K. pneumoniae MP-546; conditions: Klebsiella pneumoniae, MP546; strain MP-546, broth dilution
[4] = test system: K. pneumoniae MP-648; assay: Broth dilution MIC determination (CLSI), K. pneumoniae MP-648; conditions: Klebsiella pneumoniae, MP648; strain MP-648, broth dilution
[5] = test system: P. aeruginosa MP-3; assay: Broth dilution MIC determination (CLSI), P. aeruginosa MP-3; conditions: Pseudomonas aeruginosa, MP3; strain MP-3, broth dilution
[6] = test system: A. baumannii MP-15; assay: Broth dilution MIC determination (CLSI), A. baumannii MP-15; conditions: Acinetobacter baumannii, MP15; strain MP-15, broth dilution; read-out: MIC A. baumanii MP-15

Row | SMILES | MIC [1] | MIC [2] | MIC [3] | MIC [4] | MIC [5] | MIC [6]
1 | CO[C@]1(C)C[C@@H](C)CN(C)[C@H](C2CN(C(=O)CCCN(C)CC(C)C)C2)COC(=O)C(C)(C)C(=O)[C@H](C)[C@H]1O[C@@H]1O[C@H](C)C[C@H](N(C)C)[C@H]1O [Compound 178, (3R,6R,8R,9R,10R)-9-(((2S,3R,4S,6R)-4-(dimethylamino)-3-hydroxy-6-methyltetrahydro-2H-pyran-2-yl)oxy)-3-(1-(4-(isobutyl(methyl)amino)butanoyl)azetidin-3-yl)-8-methoxy-4,6,8,10,12,12-hexamethyl-1-oxa-4-azacyclotridecane-11,13-dione] | > 32 µg/mL | < 4 µg/mL | 4 to 32 µg/mL (≈ 5.63 to 45 µM) | 4 to 32 µg/mL (≈ 5.63 to 45 µM) | > 32 µg/mL | > 32 µg/mL
2 | CO[C@]1(C)C[C@@H](C)CN(C)[C@H]([C@H]2C[C@@H](N(C)CC3CC3)C2)COC(=O)C(C)(C)C(=O)[C@H](C)[C@H]1O[C@@H]1O[C@H](C)C[C@H](N(C)C)[C@H]1O [Compound 18, (3R,6R,8R,9R,10R)-3-((1s,3S)-3-((cyclopropylmethyl)(methyl)amino)cyclobutyl)-9-(((2S,3R,4S,6R)-4-(dimethylamino)-3-hydroxy-6-methyltetrahydro-2H-pyran-2-yl)oxy)-8-methoxy-4,6,8,10,12,12-hexamethyl-1-oxa-4-azacyclotridecane-11,13-dione] | > 32 µg/mL | < 4 µg/mL | 4 to 32 µg/mL (≈ 6.27 to 50.2 µM) | 4 to 32 µg/mL (≈ 6.27 to 50.2 µM) | > 32 µg/mL | > 32 µg/mL
3 | CCCN1CCC([C@]2(C)COC(=O)C(C)(C)C(=O)[C@H](C)[C@@H](O[C@@H]3O[C@H](C)C[C@H](N(C)C)[C@H]3O)[C@](C)(OC)C[C@@H](C)CN2C)CC1 [Compound 143, (3R,6R,8R,9R,10R)-9-(((2S,3R,4S,6R)-4-(dimethylamino)-3-hydroxy-6-methyltetrahydro-2H-pyran-2-yl)oxy)-8-methoxy-3,4,6,8,10,12,12-heptamethyl-3-(1-propylpiperidin-4-yl)-1-oxa-4-azacyclotridecane-11,13-dione] | > 32 µg/mL | < 4 µg/mL | < 4 µg/mL | < 4 µg/mL | > 32 µg/mL | > 32 µg/mL
4 | CO[C@]1(C)C[C@@H](C)CN(C)[C@H](C2CN(C(=O)CCN(C)CC(C)C)C2)COC(=O)C(C)(C)C(=O)[C@H](C)[C@H]1O[C@@H]1O[C@H](C)C[C@H](N(C)C)[C@H]1O [Compound 125, (3R,6R,8R,9R,10R)-9-(((2S,3R,4S,6R)-4-(dimethylamino)-3-hydroxy-6-methyltetrahydro-2H-pyran-2-yl)oxy)-3-(1-(3-(isobutyl(methyl)amino)propanoyl)azetidin-3-yl)-8-methoxy-4,6,8,10,12,12-hexamethyl-1-oxa-4-azacyclotridecane-11,13-dione] | > 32 µg/mL | < 4 µg/mL | 4 to 32 µg/mL (≈ 5.74 to 45.9 µM) | 4 to 32 µg/mL (≈ 5.74 to 45.9 µM) | > 32 µg/mL | > 32 µg/mL
5 | CO[C@]1(C)C[C@@H](C)CN(C)[C@H](C2CN(C(=O)[C@@H]3CCN(CC4CC4)C3)C2)COC(=O)C(C)(C)C(=O)[C@H](C)[C@H]1O[C@@H]1O[C@H](C)C[C@H](N(C)C)[C@H]1O [Compound 145, (3R,6R,8R,9R,10R)-3-(1-((R)-1-(cyclopropylmethyl)pyrrolidine-3-carbonyl)azetidin-3-yl)-9-(((2S,3R,4S,6R)-4-(dimethylamino)-3-hydroxy-6-methyltetrahydro-2H-pyran-2-yl)oxy)-8-methoxy-4,6,8,10,12,12-hexamethyl-1-oxa-4-azacyclotridecane-11,13-dione] | > 32 µg/mL | < 4 µg/mL | 4 to 32 µg/mL (≈ 5.66 to 45.3 µM) | 4 to 32 µg/mL (≈ 5.66 to 45.3 µM) | > 32 µg/mL | > 32 µg/mL
6 | CO[C@]1(C)C[C@@H](C)CN(C)[C@H](C2CCN(C(C)C)CC2)COC(=O)C(C)(C)C(=O)[C@H](C)[C@H]1O[C@@H]1O[C@H](C)C[C@H](N(C)C)[C@H]1O [Compound 151] | > 32 µg/mL | < 4 µg/mL | < 4 µg/mL | < 4 µg/mL | > 32 µg/mL | > 32 µg/mL

Further lines, results first:

Row | MIC [1] | MIC [2] | MIC [3] | MIC [4] | MIC [5] | MIC [6] | SMILES
7 | 4 to 32 µg/mL (≈ 5.98 to 47.8 µM) | < 4 µg/mL | < 4 µg/mL | 4 to 32 µg/mL (≈ 5.98 to 47.8 µM) | > 32 µg/mL | > 32 µg/mL | CO[C@]1(C)C[C@@H](C)CN(C)[C@H](C2CN(C(=O)CNC(C)(C)C)C2)COC(=O)C(C)(C)C(=O)[C@H](C)[C@H]1O[C@@H]1O[C@H](C)C[C@H](N(C)C)[C@H]1O [Compound 41, (3R,6R,8R,9R,10R)-3-(1-(tert-butylglycyl)azetidin-3-yl)-9-(((2S,3R,4S,6R)-4-(dimethylamino)-3-hydroxy-6-methyltetrahydro-2H-pyran-2-yl)oxy)-8-methoxy-4,6,8,10,12,12-hexamethyl-1-oxa-4-azacyclotridecane-11,13-dione]
8 | 4 to 32 µg/mL (≈ 5.99 to 47.9 µM) | < 4 µg/mL | 4 to 32 µg/mL (≈ 5.99 to 47.9 µM) | 4 to 32 µg/mL (≈ 5.99 to 47.9 µM) | > 32 µg/mL | > 32 µg/mL | CCCN1C[C@H](C)C[C@@](C)(OC)[C@H](O[C@@H]2O[C@H](C)C[C@H](N(C)C)[C@H]2O)[C@@H](C)C(=O)C(C)(C)C(=O)OC[C@H]1[C@H]1C[C@H](N(C)CC(C)C)C1 [Compound 60, (3R,6R,8R,9R,10R)-9-(((2S,3R,4S,6R)-4-(dimethylamino)-3-hydroxy-6-methyltetrahydro-2H-pyran-2-yl)oxy)-3-((1r,3R)-3-(isobutyl(methyl)amino)cyclobutyl)-8-methoxy-6,8,10,12,12-pentamethyl-4-propyl-1-oxa-4-azacyclotridecane-11,13-dione]
9 | 4 to 32 µg/mL (≈ 6.16 to 49.2 µM) | < 4 µg/mL | < 4 µg/mL | 4 to 32 µg/mL (≈ 6.16 to 49.2 µM) | > 32 µg/mL | > 32 µg/mL | CO[C@]1(C)C[C@@H](C)CN(C)[C@H](C2CN(Cc3cnn(C)c3)C2)COC(=O)C(C)(C)C(=O)[C@H](C)[C@H]1O[C@@H]1O[C@H](C)C[C@H](N(C)C)[C@H]1O [Compound 49, (3R,6R,8R,9R,10R)-9-(((2S,3R,4S,6R)-4-(dimethylamino)-3-hydroxy-6-methyltetrahydro-2H-pyran-2-yl)oxy)-8-methoxy-4,6,8,10,12,12-hexamethyl-3-(1-((1-methyl-1H-pyrazol-4-yl)methyl)azetidin-3-yl)-1-oxa-4-azacyclotridecane-11,13-dione]
10 | 4 to 32 µg/mL (≈ 6.25 to 50 µM) | < 4 µg/mL | < 4 µg/mL | < 4 µg/mL | > 32 µg/mL | > 32 µg/mL | CO[C@]1(C)C[C@@H](C)CN(C)[C@](C)(C2CCN(C(C)C)CC2)COC(=O)C(C)(C)C(=O)[C@H](C)[C@H]1O[C@@H]1O[C@H](C)C[C@H](N(C)C)[C@H]1O [Compound 158, (3R,6R,8R,9R,10R)-9-(((2S,3R,4S,6R)-4-(dimethylamino)-3-hydroxy-6-methyltetrahydro-2H-pyran-2-yl)oxy)-3-(1-isopropylpiperidin-4-yl)-8-methoxy-3,4,6,8,10,12,12-heptamethyl-1-oxa-4-azacyclotridecane-11,13-dione]
11 | 4 to 32 µg/mL (≈ 6.14 to 49.1 µM) | < 4 µg/mL | < 4 µg/mL | 4 to 32 µg/mL (≈ 6.14 to 49.1 µM) | > 32 µg/mL | > 32 µg/mL | CO[C@]1(C)C[C@@H](C)CN(C)[C@@H](C2CCN(CC3CCC3)CC2)COC(=O)C(C)(C)C(=O)[C@H](C)[C@H]1O[C@@H]1O[C@H](C)C[C@H](N(C)C)[C@H]1O [Compound 69, (3S,6R,8R,9R,10R)-3-(1-(cyclobutylmethyl)piperidin-4-yl)-9-(((2S,3R,4S,6R)-4-(dimethylamino)-3-hydroxy-6-methyltetrahydro-2H-pyran-2-yl)oxy)-8-methoxy-4,6,8,10,12,12-hexamethyl-1-oxa-4-azacyclotridecane-11,13-dione]
12 | 4 to 32 µg/mL (≈ 6.69 to 53.5 µM) | < 4 µg/mL | < 4 µg/mL | < 4 µg/mL | > 32 µg/mL | > 32 µg/mL | CO[C@]1(C)C[C@@H](C)CN(C)[C@H]([C@H]2C[C@H](N(C)C)C2)COC(=O)C(C)(C)C(=O)[C@H](C)[C@H]1O[C@@H]1O[C@H](C)C[C@H](N(C)C)[C@H]1O [Compound 30, (3R,6R,8R,9R,10R)-9-(((2S,3R,4S,6R)-4-(dimethylamino)-3-hydroxy-6-methyltetrahydro-2H-pyran-2-yl)oxy)-3-((1r,3R)-3-(dimethylamino)cyclobutyl)-8-methoxy-4,6,8,10,12,12-hexamethyl-1-oxa-4-azacyclotridecane-11,13-dione]
13 | 4 to 32 µg/mL (≈ 6 to 48 µM) | 4 to 32 µg/mL (≈ 6 to 48 µM) | 4 to 32 µg/mL (≈ 6 to 48 µM) | 4 to 32 µg/mL (≈ 6 to 48 µM) | > 32 µg/mL | > 32 µg/mL | CO[C@]1(C)C[C@@H](C)CN(C)[C@H](C2CN(C(=O)[C@@H]3CCN(C)C3)C2)COC(=O)C(C)(C)C(=O)[C@H](C)[C@H]1O[C@@H]1O[C@H](C)C[C@H](N(C)C)[C@H]1O [Compound 111, (3R,6R,8R,9R,10R)-9-(((2S,3R,4S,6R)-4-(dimethylamino)-3-hydroxy-6-methyltetrahydro-2H-pyran-2-yl)oxy)-8-methoxy-4,6,8,10,12,12-hexamethyl-3-(1-((R)-1-methylpyrrolidine-3-carbonyl)azetidin-3-yl)-1-oxa-4-azacyclotridecane-11,13-dione]
14 | 4 to 32 µg/mL (≈ 6.13 to 49 µM) | 4 to 32 µg/mL (≈ 6.13 to 49 µM) | > 32 µg/mL | > 32 µg/mL | > 32 µg/mL | > 32 µg/mL | CO[C@]1(C)C[C@@H](C)CN(C)[C@H](C2CN(C(=O)[C@H]3CCNC3)C2)COC(=O)C(C)(C)C(=O)[C@H](C)[C@H]1O[C@@H]1O[C@H](C)C[C@H](N(C)C)[C@H]1O [Compound 181, (3R,6R,8R,9R,10R)-9-(((2S,3R,4S,6R)-4-(dimethylamino)-3-hydroxy-6-methyltetrahydro-2H-pyran-2-yl)oxy)-8-methoxy-4,6,8,10,12,12-hexamethyl-3-(1-((S)-pyrrolidine-3-carbonyl)azetidin-3-yl)-1-oxa-4-azacyclotridecane-11,13-dione]
